IC50 data for 15 compounds are collected here from patent publication US5216022A, “Aromatic esters of phenylenedialkanoates as inhibitors of human neutrophil elastase” (Cortech, Inc., priority 1991, dated 1993).

One may read the IC50 as the concentration at which inhibition is half-maximal.

For the assay, the target named is T1, human neutrophil elastase (HNE) (Homo sapiens, UniProt P08246).
T1 sequence (P08246 30-267): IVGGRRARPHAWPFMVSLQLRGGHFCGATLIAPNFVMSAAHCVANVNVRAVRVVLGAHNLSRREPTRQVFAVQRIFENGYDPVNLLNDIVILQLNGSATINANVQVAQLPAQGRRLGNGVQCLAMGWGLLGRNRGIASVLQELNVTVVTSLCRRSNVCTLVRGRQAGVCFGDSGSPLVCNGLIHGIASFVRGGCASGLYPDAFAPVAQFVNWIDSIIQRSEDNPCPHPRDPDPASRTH
Briefly: Potency (IC50 determination) against human neutrophil elastase, chromogenic substrate N-methoxysuccinyl-ala-ala-pro-val-pNA, 405 nm. The following applies: pH 7.7, 7 min incubation at room temperature. It counts as biochemical. As for the experimental part:
A) 0.075M sodium phosphate, 20% dimethyl sulfoxide (DMSO),pH 7.7=substrate and inhibitor buffer
B) 0.075M sodium phosphate no DMSO,pH7.7=inhibitor buffer
C) 10 mM human neutrophil elastase (HNE) substrate=N-methoxysuccinyl-ala-ala-pro-val-pNA in DMSO
D) 0.01 sodium acetate, pH 5.5=enzyme buffer (storage)
E) HNE (1 mg) dissolved in 1 mL of […] for storage at -20° C.
Make a 10 mM stock of the inhibitor in DMSO. Dilute an aliquot (10 μL) up to 1.0 mL in reagent A (100 μM). Serially dilute 100 μL of the 100 μM in reagent A. Apply 100 μL of the diluted material to the wells of a 96-well plate. Dilute an aliquot of reagent F 1:150 in reagent D, apply 50 μL aliquots to the indicator wells and incubate 7 minutes at room temperature.
The HNE substrate solution is made by taking 100 μl of reagent C into 500 μL of reagent A and 400 μL of reagent B. After the 7 minutes of incubation, the substrate (50 μL) is applied to each well. The HNE catalyzed reaction is then monitored spectrophotometrically at 405 nm using an ELISA plate reader machine (UVMAX, Molecular Devices) which processes the raw data with an on-board kinetics program. The enzyme activity is plotted against different inhibitor concentrations and IC50 value is determined by using a curve fitting software program.
`CCC(C(=O)Oc1ccc([S+]([O-])CC(C)(C)C(=O)O)cc1)c1ccc(C(CC)C(=O)Oc2ccc([S+]([O-])CC(C)(C)C(=O)O)cc2)cc1` (stereo not drawn) [Compound 5] gave an IC50 of 40 nM.

Compound `CCC(C(=O)Oc1ccc([S+](C)[O-])cc1)c1ccc(C(CC)C(=O)Oc2ccc([S+](C)[O-])cc2)cc1` (stereo not drawn) [Compound 2] registered a 50% inhibitory concentration (IC50) of 224 nM.

Regarding `CCC(C(=O)Oc1ccc(SCC(C)(C)C(=O)O)cc1)c1cccc(C(CC)C(=O)Oc2ccc(SCC(C)(C)C(=O)O)cc2)c1` (stereo not drawn) [Compound 19], the IC50 worked out at 198 nM. The result for `CCC(C(=O)Oc1ccc(S(=O)(=O)CC(C)(C)C(=O)O)cc1)c1ccc(C(CC)C(=O)Oc2ccc(S(=O)(=O)CC(C)(C)C(=O)O)cc2)cc1` (stereo not drawn) [Compound 6] reads 28 nM. Then `CC(C)(C[S+]([O-])c1ccc(OC(=O)C(C)(C)c2ccc(C(C)(C)C(=O)Oc3ccc([S+]([O-])CC(C)(C)C(=O)O)cc3)cc2)cc1)C(=O)O` (stereo not drawn) [Compound 11], with 23 nM. The result for `CCC(C(=O)Oc1ccnc(SC)n1)c1ccc(C(CC)C(=O)Oc2ccnc(SC)n2)cc1` (stereo not drawn) [Compound 28] reads 64 nM; that for `CCC(C(=O)Oc1ccc(S(=O)(=O)CC(C)(C)C(=O)O)cc1)c1cccc(C(CC)C(=O)Oc2ccc(S(=O)(=O)CC(C)(C)C(=O)O)cc2)c1` (stereo not drawn) [Compound 21], 36 nM.

Compound `CCC(C(=O)Oc1ccc(S(=O)(=O)C(C)(C)C(=O)O)cc1)c1ccc(C(CC)C(=O)Oc2ccc(S(=O)(=O)C(C)(C)C(=O)O)cc2)cc1` (stereo not drawn) [Compound 9] returned a half-maximal inhibitory concentration (IC50) of 37 nM. Then `CCC(C(=O)Oc1ccc(SCC(C)(C)C(=O)O)cc1)c1ccc(C(CC)C(=O)Oc2ccc(SCC(C)(C)C(=O)O)cc2)cc1` (stereo not drawn) [Compound 4], with 120 nM; and `CC(C)(C(=O)Oc1ccc(SCC(=O)O)cc1)c1ccc(C(C)(C)C(=O)Oc2ccc(SCC(=O)O)cc2)cc1` [Compound 13], with 835 nM; and `CC(C)(C(=O)Oc1ccc(S(=O)(=O)CC(=O)O)cc1)c1ccc(C(C)(C)C(=O)Oc2ccc(S(=O)(=O)CC(=O)O)cc2)cc1` [Compound 15], with 77 nM. `CCC(C(=O)Oc1ccc(SC)cc1)c1ccc(C(CC)C(=O)Oc2ccc(SC)cc2)cc1` (stereo not drawn) [Compound 1, Bis(4-Methylmercaptophenyl)2'-(1,4-phenylene)dibutyrate]: half-maximal inhibition (IC50) required 8440 nM. As to `CCC(C(=O)Oc1ccc(S(C)(=O)=O)cc1)c1ccc(C(CC)C(=O)Oc2ccc(S(C)(=O)=O)cc2)cc1` (stereo not drawn) [Compound 3], the half-maximal inhibitory concentration (IC50) amounted to 62 nM.

In turn, `CCC(C(=O)Oc1ccc([S+]([O-])C(C)(C)C(=O)O)cc1)c1ccc(C(CC)C(=O)Oc2ccc([S+]([O-])C(C)(C)C(=O)O)cc2)cc1` (stereo not drawn) [Compound 8] showed an IC50 of 74 nM. The result for `CC(C)(CSc1ccc(OC(=O)C(C)(C)c2ccc(C(C)(C)C(=O)Oc3ccc(SCC(C)(C)C(=O)O)cc3)cc2)cc1)C(=O)O` [Compound 10] reads 253 nM.
